By IC50 is commonly meant the point on the concentration scale where inhibition reaches its midpoint. Low readings indicate inhibition by little substance, high ones a need for much substance.

Here are results for 16 molecules from ChEMBL document CHEMBL2040837, “Synthesis and cytotoxic activity of some 17-picolyl and 17-picolinylidene androstane derivatives” (Eur J Med Chem, 2012).

Assay [1] concerns MCF7. Put plainly: Cytotoxicity against ER-positive human MCF7 cells after 48 hr by SRB assay. The settings on record: MCF7, 48 h. (In SRB staining, fixed cells bind dye roughly in proportion to their protein.)
Assay [2] relates to HT-29. Put plainly: Cytotoxicity against human HT-29 cells […] by SRB assay. Type of assay: functional, cell-based.
Assay [3] relates to PC-3. Description: Cytotoxicity against AR-negative human PC3 cells after 48 hr by SRB assay. The following applies: PC-3, 48 h.
Assay [4] concerns HeLa. Put plainly: Cytotoxicity against human HeLa cells […] by SRB assay. Format: functional, cell-based.
Assay [5] relates to MRC5. Description: Cytotoxicity against human MRC5 cells […] by SRB assay. Format: cell-based.
For assay [6], the system named is MDA-MB-231. Put plainly: Cytotoxicity against ER-negative human MDA-MB-231 cells after 48 hr by SRB assay. The following applies: for IC50: MDA-MB-231, 48 h.
Assay [7] deals with MDA-MB-231. Description: Ratio of 17alpha-picolyl-androst-5-en 3beta, 17beta-diol IC50 to compound IC50 cytotoxicity against ER-negative human MDA-MB-231 cells after 48 hr by SRB assay.
In assay [8] the test system is MDA-MB-231. Put plainly: Cytotoxicity against ER-negative human MDA-MB-231 cells at <1 uM after 48 hr by SRB assay.

With `C[C@]12CCC(=O)C(O)=C1CC[C@@H]1[C@@H]2CC[C@]2(C)C(=O)CC[C@@H]12` [FORMESTANE], the IC50 in assay [1] was over 100 µM; in assay [2], over 100 µM; in assay [3], 48.4 µM; in assay [4] it was 5.55 µM; in assay [5] it was over 100 µM; in assay [6], 55.5 µM. Also, the Activity entry in assay [6] is “Dose-dependent effect”.
In the case of `C[C@]12CC[C@H](O)[C@H](O)C1=CC[C@@H]1[C@@H]2CC[C@@]2(C)[C@H]1CC[C@@]2(O)Cc1ccccn1`, the IC50 in assay [1] was over 100 µM; in assay [2], 8 µM; in assay [3], 52.1 µM; in assay [4], 26.6 µM; in assay [5], over 100 µM; in assay [6], 9 µM. Also, in assay [7], the “Ratio IC50” value worked out at 10. The Activity result in assay [6] is “Dose-dependent effect”.
On to `C[C@]12CC[C@H](O)C=C1CC[C@@H]1[C@@H]2CC[C@]2(C)/C(=C/c3ccccn3)CC[C@@H]12`, for which the IC50 in assay [1] was over 100 µM; in assay [3], 10.1 µM; in assay [5] it was over 100 µM; in assay [6] it was over 100 µM. The Activity entry in assay [6] is “Dose-dependent effect”.
For `CC(=O)O[C@@H]1C=C2CC[C@@H]3[C@H](CC[C@@]4(C)[C@H]3CC[C@@]4(O)Cc3ccccn3)[C@@]2(C)CC1`, the IC50 in assay [1] is over 100 µM; in assay [2], 10.6 µM; in assay [3] it was 31.3 µM; in assay [4], over 100 µM; in assay [5], over 100 µM; in assay [6], 10.2 µM. The Activity result in assay [6] was “Dose-dependent effect”.
On to `C[C@]12CCC(=O)C=C1C(=O)C[C@@H]1[C@@H]2CC[C@@]2(C)[C@H]1CC[C@@]2(O)Cc1ccccn1`, for which the half-maximal inhibitory concentration (IC50) was over 100 µM in assay [1]; over 100 µM in assay [2]; 4.3 µM in assay [3]; over 100 µM in assay [4]; over 100 µM in assay [5]; over 100 µM in assay [6]. Moreover, the Activity entry in assay [6] is “Dose-dependent effect”.
`C[C@]12CC[C@H](O)CC1=CC[C@@H]1[C@@H]2CC[C@@]2(C)[C@H]1CC[C@@]2(O)Cc1ccccn1`: the IC50 was over 100 µM in assay [1], 6.3 µM in assay [3], over 100 µM in assay [5] and 96.1 µM in assay [6]. For the same molecule, in assay [6], the Activity result is “Dose-dependent effect”.
`C[C@]12CCC=CC1=CC[C@@H]1[C@@H]2CC[C@@]2(C)[C@H]1CC[C@@]2(O)Cc1ccccn1`: the IC50 is 17.4 µM in assay [1]; 11.7 µM in assay [2]; 24.7 µM in assay [3]; 27.5 µM in assay [4]; over 100 µM in assay [5]; 2.3 µM in assay [6]. In assay [6], the Activity result was “Dose-dependent effect”.
Turning to `COc1cccc2c1C(=O)c1c(O)c3c(c(O)c1C2=O)C[C@@](O)(C(=O)CO)C[C@@H]3O[C@H]1C[C@H](N)[C@H](O)[C@H](C)O1` [DOXORUBICIN], the IC50 came to 0.75 µM in assay [1]; 0.32 µM in assay [2]; 95.6 µM in assay [3]; 1.17 µM in assay [4]; 0.12 µM in assay [5]; 0.12 µM in assay [6]. In assay [6], the Activity entry is “Dose-dependent effect”.
Take `C[C@]12CCC(=O)C(O)=C1C=C[C@@H]1[C@@H]2CC[C@@]2(C)[C@H]1CC[C@@]2(O)Cc1ccccn1`: the half-maximal inhibitory concentration (IC50) in assay [1] is 3.6 µM; in assay [2], over 100 µM; in assay [3] it was 25.6 µM; in assay [4], 36.6 µM; in assay [5], over 100 µM; in assay [6] it was 1.2 µM. Moreover, the Activity result in assay [6] was “Dose-dependent effect”.
For `C[C@]12CC[C@H](O)[C@@H](O)C1=CC[C@@H]1[C@@H]2CC[C@@]2(C)[C@H]1CC[C@@]2(O)Cc1ccccn1`, the IC50 is over 100 µM in assay [1]; 2.6 µM in assay [2]; 21.3 µM in assay [3]; 21.3 µM in assay [4]; over 100 µM in assay [5]; 5.6 µM in assay [6]. Besides, in assay [7], the “Ratio IC50” value came out at 17. The Activity entry in assay [6] is “Dose-dependent effect”.
For the molecule `C[C@]12CCC=CC1=CC[C@@H]1[C@@H]2CC[C@]2(C)/C(=C/c3ccccn3)CC[C@@H]12`, the concentration for half-maximal inhibition (IC50) in assay [1] was 55.8 µM; in assay [2], 1.8 µM; in assay [3] it was 19.9 µM; in assay [4], 23.3 µM; in assay [5], over 100 µM; in assay [6] it was 4.6 µM. In assay [6], the Activity entry is “Dose-dependent effect”.
For the molecule `C[C@]12CC[C@H](O)C=C1CC[C@@H]1[C@@H]2CC[C@@]2(C)[C@H]1CC[C@@]2(O)Cc1ccccn1`, the IC50 in assay [1] is over 100 µM; in assay [2], over 100 µM; in assay [3], 22.3 µM; in assay [4], 26.9 µM; in assay [5] it was over 100 µM; in assay [6] it was 3.8 µM. Further, the Activity result in assay [6] was “Dose-dependent effect”.
With `COC1=C2CC[C@@H]3[C@H](CC[C@@]4(C)[C@H]3CC[C@@]4(O)Cc3ccccn3)[C@@]2(C)CCC1=O`, the IC50 was over 100 µM in assay [1]; over 100 µM in assay [2]; 54.8 µM in assay [3]; 19.1 µM in assay [4]; over 100 µM in assay [5]; 42.6 µM in assay [6]. Also, the Activity entry in assay [6] is “Dose-dependent effect”.
With `C[C@]12CC[C@H]3[C@@H](C[C@@H]4O[C@@]45C[C@@H](O)CC[C@]35C)[C@@H]1CC[C@@]2(O)Cc1cccc[n+]1[O-]`, the IC50 in assay [1] is over 100 µM; in assay [2], 25.8 µM; in assay [3], 33.6 µM; in assay [4], 33.5 µM; in assay [5] it was over 100 µM; in assay [6] it was 7.5 µM. Moreover, the Activity result in assay [6] was “Dose-dependent effect”.
Regarding `COC1=C2CC[C@@H]3[C@H](CC[C@]4(C)/C(=C/c5ccccn5)CC[C@@H]34)[C@@]2(C)CCC1=O`, the half-maximal inhibitory concentration (IC50) in assay [1] was over 100 µM; in assay [2], 56 µM; in assay [3], 34.1 µM; in assay [4] it was 15.3 µM; in assay [5] it was over 100 µM; in assay [6] it was 4.1 µM. In addition, the Activity in assay [8] was 10%; in assay [6], “Dose-dependent effect”.
Take `C[C@]12CCC(=O)C(O)=C1C=C[C@@H]1[C@@H]2CC[C@]2(C)/C(=C/c3ccccn3)CC[C@@H]12`: the IC50 in assay [1] is over 100 µM; in assay [3] it was over 100 µM; in assay [5], over 100 µM; in assay [6], 9.3 µM. Also, in assay [6], the Activity result was “Dose-dependent effect”.
